Data from patent US12054560B2, “Bifunctional molecules recruiting antibodies and targeting cancer cells” (JIANGNAN UNIVERSITY, priority 2017, dated 2024).
Square brackets hold non-standard residues; d marks the D form. Primed or numbered codes have the meaning given here. Side chains are listed from the residue outwards. oligo‑glycol (n:2) = oligo-glycol tether (n=2) linking D-Lys(N3) to alkynyl rhamnose by click reaction; oligo‑glycol (n:5) = oligo-glycol tether (n=5) linking D-Lys(N3) to alkynyl rhamnose by click reaction; dLys(N3)′ = its azide, alkyne or alkene has reacted where a group follows in round brackets; rhamnose derivative = not defined here; click linkage = not defined here; pGlu = O=C1CC[C@@H](C(=O)O)N1

Tests used:
[1] = test system: MCF7 cells (LHRH-R positive); assay: Flow cytometry, recruitment of anti-Rha antibody on MCF7 cells; format: cell-based; conditions: 250 nM, anti-Rha antibody 20 μg/mL, FIG. 7
Procedure: (§1) Commercialized MCF7 cells (LHRH-R positive) and UCI-107(LHRH-R negative) were grown in DMEM supplemented with 10% FBS, 1% penicillin-streptomycin. All cells were cultured at 37° C. in a 5% CO2 humidified atmosphere.
(1) Cells were cultured and detached with trypsin-EDTA and then resuspended to 1.0×10^5 cells/mL. Forty thousand of these cells were added into sterile centrifuge tubes. (2) LHRH, LHRH-Rha, LHRH-TEG-Rha and LHRH-HEG-Rha compounds were added at a final concentration of 250 nM. For the blank group (Negative), the corresponding volume of PBS was added. And anti-Rha antibody at a final concentration of 20 μg/mL in all groups. These cells were incubated on ice for 60 min, washed with flow cytometry buffer. And fluorescent secondary antibody was immediately added in all groups. These cells were incubated on ice for 30 min, (3) washed with flow cytometry buffer and then analyzed using an Accuri C6 flow cytometer.

[2] = test system: MCF7 cells (LHRH-R positive); assay: ADCC experiment on MCF7 cells; format: cell-based; conditions: MCF-7 cells, 250 nM, anti-Rha antibody, PBMC, LDH method, FIG. 7
Procedure: as §1
(1) MCF7 or UCI-107 cells were seeded in 96-well plates at a concentration of 10,000 cells/well and then treated with LHRH, LHRH-Rha, LHRH-TEG-Rha and LHRH-HEG-Rha at a final concentration of 250 nM and a certain concentration of anti-Rha antibody. (2) Following the incubation period, freshly extracted PBMC cells were added at a certain effective target ratio, (3) and the supernatant was treated by centrifugation for minutes, using LDH method to measure the cytotoxicity.

[3] = test system: MCF7 cells (LHRH-R positive); assay: CDC experiment on MCF7 cells; format: cell-based; conditions: MCF-7 cells, 250 nM, anti-Rha antibody, 10% rabbit complement, cck8 kit, FIG. 7
Procedure: as §1
(1) MCF7 cells or UCI-107 were seeded in 96-well plates at a concentration of 5000 cells/well and then treated with LHRH, LHRH-Rha, LHRH-TEG-Rha and LHRH-HEG-Rha at a final concentration of 250 nM and a certain concentration of anti-Rha antibody. Following the incubation at 37° C. for 2 h, next, diluted rabbit complement at a final concentration of 10% were added to each well. Following the incubation at 37° C. for 1 h, the results detected using cck8 kit.

[4] = test system: HEK-293 (high expression of integrin αvβ3); assay: Flow cytometry on HEK-293 cells; format: cell-based; conditions: FIG. 11
Procedure: (§2) Cell assay implementation: cell culture: commercial cells HEK-293 (high expression of integrin αvβ3), SKOV-3 (high expression of integrin αvβ3, αvβ 5), and HT-29 (high expression of integrin αvβ5) was cultured in DMEM complete medium. All cell culture conditions were 37° C., 5% CO2. Flow cytometry assay: (1) The cells were digested with trypsin, resuspended in flow medium diluted to 1×10^5 cells. 400 μL of cells (40,000 cells) were added to a sterile EP tube. (2) RGD analogues (SEQ ID NO:9), RGD-DNP and RGD-linker-DNP compounds were added […], incubate on ice for 1 h. Then the cells were washed and incubated with fluorescent secondary antibody for 0.5 h. (3) the cells were thoroughly washed gently with a flow buffer, resuspended, and analyzed by instruments.

[5] = test system: SKOV-3 (high expression of integrin αvβ3, αvβ 5); assay: Flow cytometry on SKOV-3 cells; format: cell-based; conditions: FIG. 11
Procedure: as §2

[6] = test system: HT-29 (high expression of integrin αvβ5); assay: Flow cytometry on HT-29 cells; format: cell-based; conditions: FIG. 11
Procedure: as §2

HEK-293 cells [7] = assay: ADCC assay on HEK-293 cells; format: cell-based; conditions: 250 nM, anti-DNP antibody, PBMC, LDH method, FIG. 11
Procedure: ADCC assay implementation: (1) HEK-293, SKOV-3, HT-29 cells were seeded in 96-well plates at a concentration of 10,000 cells/well. After the cells were fully attached, added with RGD analogues (SEQ ID NO:9), RGD-DNP and RGD-linker-DNP compounds at a final concentration of 250 nM and immediately added a certain concentration of anti-DNP antibody. (2) After incubation for a period of time, freshly extracted PBMC cells were added at a certain effect target ratio for a certain period of time. (3) The supernatant was removed by centrifugation, and cytotoxicity was measured by the LDH method.

HEK-293 cells [8] = assay: CDC assay on HEK-293 cells; format: cell-based; conditions: 250 nM, anti-DNP antibody, 10% complement, cck8 method, FIG. 11
Procedure: CDC assay implementation: (1) HEK-293, SKOV-3, HT-29 cells were seeded in 96-well plates at a concentration of 5,000 cells/well. After the cells were fully attached, added with RGD analogues (SEQ ID NO:9), RGD-DNP and RGD-linker-DNP compounds at a final concentration of 250 nM and added a certain concentration of anti-DNP antibody at the same time. After 2 hours of incubation at 37° C., a final concentration of 10% of the complement solution was added and incubated for 1 hour at 37° C. After the incubation, the cell viability was measured by the cck8 method.

SKBR3 cells [9] = assay: ADCC assay on SKBR3 cells; format: cell-based; conditions: rabbit anti-Rha IgG, human peripheral blood mononuclear cells, LDH kit, FIG. 6(A)
Procedure: (§3) SKBR3 (HER2 positive) and MCF7 cells (HER2 negative) were grown in DMEM supplemented with 10% FBS, 1% penicillin-streptomycin. All cells were cultured at 37° C. in a 5% CO2 humidified atmosphere.
(1) SKBR3 cells were seeded in 96-well plates at a concentration of 10,000 cells/well and then treated with C7b and Rha conjugated C7b in the presence of rabbit anti-Rha IgG antibodies. (2) Next, freshly isolated human peripheral blood mononuclear cells were added to each well. (3) Following the incubation period, the supernatant was transferred onto a new black 96-well and detected using LDH kit.

SKBR3 cells [10] = assay: CDC assay on SKBR3 cells; format: cell-based; conditions: 20% normal human serum, cck8 kit, FIG. 6(B)
Procedure: as §3
(1) SKBR3 cells were seeded in 96-well plates at a concentration of 5000 cells/well and (2) then treated with C7b and Rhaconjugated C7b in the presence of 20% normal human serum (the source of anti-Rha IgG and complement). (3) Following the incubation period, the results detected using cck8 kit.

LHRH-R = molecular target: T1, LHRH-R (UniProt P30968 1-328); assay: cell-based or functional assay
T1 sequence (looked up): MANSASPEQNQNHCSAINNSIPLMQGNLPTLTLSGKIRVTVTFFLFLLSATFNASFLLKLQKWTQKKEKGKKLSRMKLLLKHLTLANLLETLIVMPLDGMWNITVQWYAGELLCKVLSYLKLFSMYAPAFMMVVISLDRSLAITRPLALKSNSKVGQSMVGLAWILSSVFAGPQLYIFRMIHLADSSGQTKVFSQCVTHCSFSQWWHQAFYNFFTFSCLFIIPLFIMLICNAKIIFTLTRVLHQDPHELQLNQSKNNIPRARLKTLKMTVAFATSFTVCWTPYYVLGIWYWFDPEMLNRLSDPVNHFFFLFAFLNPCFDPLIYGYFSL

HER2 = molecular target: T2, HER2 (UniProt P04626 23-1255, limits assumed); assay: flow cytometry on SKBR3 cells at 250 nM, detected with Alexa 488 rabbit anti-Rha IgG
T2 construct: whole, on cells; also called human epidermal growth factor receptor 2; HER2 (on SKBR3 cells)

Question: Which “recruitment of anti-Rha antibodies to MCF-7 tumor cells” value [1] does the source give for “LHRH-HEG-Rha: [6-D-Lys(N3)]-LHRH peptide click-coupled to rhamnose derivative, oligo-glycol linker n=5 ([pGlu]HWSY[dLys(N3)′]([click linkage-oligo‑glycol n:5-rhamnose derivative])LRPG-NH2; reading uncertain; also: rhamnose derivative attached via click (triazole) to D-Lys6, oligo-glycol n=5, structure in drawing)” here?
Answer: could recruit anti-Rha antibodies

Question: What about the ADCC-mediated killing rate [2] of the same molecule?
Answer: about 33%

Question: And the CDC-mediated killing rate [3]?
Answer: about 26%

Question: What does the source list for “LHRH-Rha: [6-D-Lys(N3)]-LHRH peptide click-coupled to rhamnose derivative, oligo-glycol linker n=0 ([pGlu]HWSYKLRPG-NH2; not fully specified (residue 6); printed as Glp-His-Trp-Ser-Tyr-D-Lys(N3)-Leu-Arg-Pro-Gly-NH2; also: rhamnose derivative attached via click (triazole) to D-Lys6, oligo-glycol n=0, structure in drawing)”?
Answer: recruitment of anti-Rha antibodies to MCF-7 tumor cells [1]: could recruit anti-Rha antibodies; ADCC-mediated killing rate [2]: about 33%; CDC-mediated killing rate [3]: about 26%

Question: Which results are given for “LHRH-TEG-Rha: [6-D-Lys(N3)]-LHRH peptide click-coupled to rhamnose derivative, oligo-glycol linker n=2 ([pGlu]HWSY[dLys(N3)′]([click linkage-oligo‑glycol n:2-rhamnose derivative])LRPG-NH2; reading uncertain; also: rhamnose derivative attached via click (triazole) to D-Lys6, oligo-glycol n=2, structure in drawing)”?
Answer: recruitment of anti-Rha antibodies to MCF-7 tumor cells [1]: could recruit anti-Rha antibodies; ADCC-mediated killing rate [2]: about 33%; CDC-mediated killing rate [3]: about 26%

Question: How did the binding to cells [4] turn out when “RGD-DNP: DNP coupled to cyclic RGD analogue Cyclo-(DFKRG), short connecting arm (cyclo(DFKRG); also: DNP conjugated (site only in drawing))” was run?
Answer: can bind

Question: And the binding to cells [5]?
Answer: can bind

Question: What about the binding to cells [6] of the same molecule?
Answer: can bind

Question: What about the ADCC kill rate (HEK-293 cells [7]) of the same molecule?
Answer: 18%

Question: What about the CDC kill rate (HEK-293 cells [8]) of the same molecule?
Answer: 21%

Question: Which results are given for “RGD-linker-DNP: DNP coupled through a linker to cyclic RGD analogue Cyclo-(DFKRG), long connecting arm (cyclo(DFKRG); also: DNP conjugated via long linker (site only in drawing))”?
Answer: binding to cells [4]: can bind; binding to cells [5]: can bind; binding to cells [6]: can bind; ADCC kill rate (HEK-293 cells [7]): 38%; CDC kill rate (HEK-293 cells [8]): 42%

B1: C7b-triEGRha: nanobody C7b linked by SrtA to small molecule GGG-triEGRha (conjugate)
VHH: MQVQLVQSGGGLVQAGGSLRLSCAASGRTFSSYAMAWFRQAPGKEREFVAAISWSGANIYVADSVKGRFTISRDNAKDTVYLQMNSLKPEDTAVYYCAVKLGFAPVEERQYDYWGQGTQVTVSSLPETGG
Question: B1 was tested. Which ADCC efficacy (SKBR3 cells [9]) did it give?
Answer: 32%

Question: What about the CDC efficacy (SKBR3 cells [10]) of the same molecule?
Answer: 36%

B2: C7b-hexEGRha: nanobody C7b linked by SrtA to small molecule GGG-hexEGRha (conjugate)
VHH: B1 VHH
Question: B2 was tested. Which ADCC efficacy (SKBR3 cells [9]) did it give?
Answer: 43%

Question: What about the CDC efficacy (SKBR3 cells [10]) of the same molecule?
Answer: 47%

Question: Which results are given for [pGlu]HWSY[dLys(N3)′]([oligo‑glycol (n:2)-rhamnose])LRPG-NH2 [LHRH-TEG-Rha]?
Answer: ADCC-mediated killing rate (LHRH-R): ~33%; CDC-mediated killing rate (LHRH-R): ~26%

Question: What does the source list for [pGlu]HWSY[dLys(N3)′]([oligo‑glycol (n:5)-rhamnose])LRPG-NH2 [LHRH-HEG-Rha]?
Answer: ADCC-mediated killing rate (LHRH-R): ~33%; CDC-mediated killing rate (LHRH-R): ~26%

Question: How did the ADCC-mediated killing rate (LHRH-R) turn out when [pGlu]HWSY[dLys(N3)′](rhamnose)LRPG-NH2 [LHRH-Rha] was run?
Answer: ~33%

Question: What about the CDC-mediated killing rate (LHRH-R) of the same molecule?
Answer: ~26%

B3: C7b-triEGRha (VHH)
VHH: QVQLVQSGGGLVQAGGSLRLSCAASGRTFSSYAMAWFRQAPGKEREFVAAISWSGANIYVADSVKGRFTISRDNAKDTVYLQMNSLKPEDTAVYYCAVKLGFAPVEERQYDYWGQGTQVTVSS
modifications: C-terminal LPETGG motif ligated by sortase A (enhanced SrtA) to GGG-triEGRha (triethylene glycol-rhamnose)
notes: also called Rha conjugated C7b
Question: Does B3 bind (HER2)?
Answer: binds

B4: C7b-hexEGRha (VHH)
VHH: B3 VHH
modifications: C-terminal LPETGG motif ligated by sortase A (enhanced SrtA) to GGG-hexEGRha (hexaethylene glycol-rhamnose)
notes: as for B3
Question: Does B4 bind (HER2)?
Answer: binds
